Square brackets hold non-standard residues; d marks the D form. Peptide text beside a SMILES is read from it.
System: CD4+ splenocytes from Vα4/Vβ8.2 TCR transgenic mice
Assay type: cell-based, mouse
Details: 72 h
Protocol: The in vitro effect of varying concentration of the CD 28 peptide mimetics on CD4+ lymph node cells and spleen cells from transgenic mice bearing the Vα 4 Vβ8.2 TCR specific for MBP Ac 1-11 was determined.
CD4+ T cells were purified from pooled peripheral lymph nodes (inguinal, axillary, brachial, cervical, popliteal), and mesenteric lymph nodes and spleen of 6–8 wk old Vα4/Vβ8.2 TCR transgenic mice by positive selection. Single cell suspensions were prepared by lympholyte M gradient, washed, counted and incubated with magnetic bead conjugated anti-mouse CD4 (L3T4) (Miltenyi Biotech Corporation) followed by positive selection using magnetic selection columns. Purity of the CD4^+ cells was greater than 90% as assessed by staining with FITC labeled anti-mouseVβ8.2 mAb (Pharmingen). During the selection process, T cells maintain a naïve phenotype with no evidence for T cell activation as measured by proliferation in culture. Purified CD4+ T-cells (5×10^4 cells/well) were cultured together with wild type splenocytes from B10.PL mice as APC's (10^5 cells/well) in RPMI 1640 containing 10% FCS, 25 mM HEPES, 2 mM L-glutamine, 50 U/ml penicillin, 50 μg/ml streptomycin, and 5×10–5 M 2-ME in round-bottom 96-well plates and MBP (40 μg/ml) or MBP NAc1-11 (10 μg/ml) or media only in the presence or absence of synthetic CD28 peptide analogues at different concentrations in triplicate wells for 72 h, including a final 18-h pulse with [^3H] thymidine. Cultures were harvested onto glass-fiber mats using a Skatron harvester (Skatron, Sterling, Va.) and were counted by liquid scintillation on LKB Betaplate (LKB, Rockville, Md.). The means of the triplicate were determined and the results are expressed as delta cpm (mean counts per minute of cultures with Ag-mean counts per minute of cultures with medium alone)±SD.

Structure (SMILES): CC[C@@H](C)[C@@H](NC(C)=O)C(=O)N[C@@H](C(=O)NCC(=O)N[C@H](CC(N)=O)C(=O)N[C@H](CO)C(=O)N[C@H](CCCNC(=N)N)C(=O)N[C@H](CCC(=O)O)C(=O)N[C@H](CC(N)=O)C(=O)N[C@H](CC(=O)O)C(=O)N[C@H](CC(C)C)C(=O)N[C@H](Cc1ccc(O)cc1)C(=O)N1CCC[C@@H]1C(=O)N1CCC[C@@H]1C(=O)N1CCC[C@@H]1C(=O)N[C@H](Cc1ccc(O)cc1)C(=O)N[C@H](CCSC)C(=O)N[C@H](Cc1ccccc1)C(=O)N[C@H](CCC(=O)O)C(=O)N[C@@H](C(=O)N[C@H](CCCCN)C(N)=O)[C@H](C)CC)[C@H](C)O [RI CD28] (Ac-[dI][dT]G[dN][dS][dR][dE][dN][dD][dL][dY][dP][dP][dP][dY][dM][dF][dE][dI][dK]-NH2)
- maximum inhibition of proliferative response: 42%

Source: patent US7220822B2, “CD28 mimetics for blocking T cell mediated immune reactions” (The Ohio State University, priority 2000, dated 2007)
